Holding throughout (test): Yeast 6x EcRE-lacZ β-galactosidase transactivation assay
What all share (assay type): cell-based, Aedes aegypti

For one assay, the system named is Aa EcR + Aa USPa. The following applies: RH 5992 10 μM, 4 hours, DMSO control 2.300. The protocol: (§1) Briefly, yeast cells are cultured in 5 mL of YPD liquid medium overnight at 30° C. The cell culture was diluted 1:20 in YPD media and further grown until cell density reached an O.D of 0.6. at OD600. The cells were pelleted by centrifugation and washed with 10 mL of TE+0.1M lithium acetate. Cells are then resuspended in 10 mL TE+0.1M lithium acetate and incubated at 30° C. for 1 hour. Cells are collected and resuspended in 0.5 mL of TE+ 0.1M lithium acetate. Aliquots of cells (50 μL), were incubated for 15 minutes at 30° C. with 1–2 μg plasmid DNA in the presence of 5 μg of denatured salmon sperm DNA as DNA carrier. In the case of co-transformation, the indicated plasmids were added simultaneously. 50% polyethyleneglycol of molecular weight 4000, diluted in TE, was added to a final concentration of 35%. DMSO was added to the transformation solution simultaneously to a final concentration 3%. The samples were mixed well by vortexing and incubated for an additional 30 minutes at 30° C. The cell mixture is then heated for 15 minutes at 42° C. Cells were then collected and plated onto appropriate yeast selective media. Transformants of 4 plasmids are selected on the complete media without tryptophan, uracil, leucine and histidine.
(§2) The yeast cells grown overnight in selective liquid media at 30° C. were diluted in prewarmed liquid selective media to 0.1 at OD600 (ODculture). 100 μl of the cell culture was spiked to each well of a.96-well microtiter plate. Ligand (2 μl diluted in DMSO) was added to each well giving a final concentration of DMSO of 2%. As a control, 2 μl of DMSO were also added to additional test wells. The final concentration of the tested compounds in the media is 10 μM. The cells were incubated in the presence of ligand in a shaker at 30° C. After 4 hours of incubation, 100 μl of 2× “Z” Sarcosine-ONPG buffer (120 mM Na2HPO4, 80 mM NaH2PO4, 20 mM KCl, 2 mM MgSO4, 100 mM beta-mercaptoethanol (Sigma), pH 7.0, 0.4% lauroyl sarcosine (Sigma), 4 mg/mL ONPG (Diagnostic Chemicals limited) was added to each well and the plate was further incubated at 37° C. The 2× “Z” Sarcosine-ONPG buffer is freshly prepared or stored at −20° C. prior to use. After incubation at 37° C. for 1 hour. The reaction was stopped by adding 100 μL of quenching solution 0.5 M Na2CO3 and OD405 (ODreaction) and beta-galactosidase activity was measured in a micro plate reader (Biotek) at a wave length of 405–450 nanometers. The effect of copper on enhancement of the transactivation response mediated by the ligands tested was studied by adding CuSO4 to the media to a final concentration of 10 μM.
(§3) Using the transformation method described above, yeast were co-transformed with a reporter gene as shown in FIG. 2 and the expression vector encoding the full-length Aedes aegypti ecdysone receptor, Aa EcR (FIG. 7A) in the presence or absence of the Aa EcR heterodimer partner, Aa USP (a or b form, FIGS. 8A and 8B respectively). Transformed cells were incubated with DMSO alone as a control, or with a proprietary ecdysone receptor ligand (Rohm & Haas tebufenozide[RH5992]) at final concentration 10 μM for 4 hours. The samples were then assayed for β-galactosidase activity as described above. […] As the N-terminal portion of the AaEcR receptor is reported to play a role in ligand independent transactivation, an expression vector containing an N-terminal deletion in the Aa EcR was constructed (see FIG. 7B) and assessed in the β-galactosidase assays described above. […] Restoration of ligand dependent transactivation was observed only when the AaΔN EcR, AaUSP (a or b forms) and co-activator GRIP1 were coexpressed. As in the Drosophila system, the data obtained indicate that the efficiency of ligand-dependent transactivation of the ecdysone receptor in mosquito A. aegypti is dependent on the both heterodimer formation of EcR/USP and also upon proper interaction with co-activator GRIP1.

A further assay concerns Aa EcR + Aa USPb. The following applies: RH 5992 10 μM, 4 hours, DMSO control 3.000. The method, then:
as §1, §2, §3

Another assay relates to Aa USPa. The note with it: RH 5992 10 μM, 4 hours, DMSO control 0.210. The protocol: as §1, §2, §3
A further assay relates to Aa USPb. The note with it: RH 5992 10 μM, 4 hours, DMSO control 0.196. The method, then:
as §1, §2, §3

In another assay the test system is Aa ΔA/B EcR + Aa USPa. The following applies: 4 hours. The protocol:
as §1, §2, §3

The subject of assay [1] is Aa ΔA/B EcR + Aa ΔA/B USP + GRIP1. The following applies: RH 5992 10 μM, 4 hours, DMSO control 0.194. The method, then: as §1, §2, §3
Assay [2] deals with Aa ΔA/B EcR + Aa ΔA/B USP. The following applies: RH 5992 10 μM, 4 hours, DMSO control 0.187. The protocol: as §1, §2, §3

The record followed here is patent US7037656B2, “Methods and compositions for identifying ligands for nuclear receptors” (priority 2000, dated 2006).

Regarding `CCc1ccc(C(=O)NN(C(=O)c2cc(C)cc(C)c2)C(C)(C)C)cc1` [RH 5992, tebufenozide], the β-galactosidase activity is 2.453 in the assay on Aa EcR + Aa USPa; 2.700 in the assay with Aa EcR + Aa USPb; 0.223 with Aa USPa; 0.210 in the assay on Aa USPb; 0.209 in the assay with Aa ΔA/B EcR + Aa USPa (RH 5992 10 μM, yeast, Aa ΔA/B EcR + Aa USPa, DMSO control 0.194); 1.370 in assay [1]. Besides, the β-galactosidase activity in assay [2] stood at 0.196. Further, in the assay with Aa ΔA/B EcR + Aa USPa (10 μM, Aa EcR with N-terminal deletion, Aa USP present or absent, no GRIP1), the “transactivation of the reporter gene (in words)” value is “incapable of transactivating the reporter gene”.
